From US7482308B2, “Difluoromethanesulfonyl anilide derivatives useful as herbicides” (Bayer CropScience AG, priority 2004, dated 2009)

Legend:
Type in all cases: in vivo
[1] = test system: sulfonylurea resistant Lindernia procumbens Philcox (collected in Higashi-Hiroshima area, Hiroshima Pref.); assay: Test for herbicidal effect against sulfonylurea resistant weeds (Test Example 3); conditions: applied at beginning of emergence, examined 3 weeks after treatment
Source text: (§1) In a green house seeds of Scirpus juncoides Roxburgh (collected in Iwamizawa area, Hokkaido), Lindernia procumbens Philcox (collected in Kazo area, Saitama Pref.), Lindernia procumbens Philcox (collected in Higashi-Hiroshima area, Hiroshima Pref.), Elatine triandra Schk (collected in Kazo area, Saitama Pref.), all of which were confirmed as sulfonylurea resistant, were inoculated in a 20 cm^2 cup filled with paddy field soil. Then water was poured to a depth of about 2 to 3 cm. At the beginning of emergence of each weed, a prescribed, diluted solution of the formulation of each active compound prepared in the same manner as the above-mentioned Test Example 1 was applied to the surface of water. After the treatment the water depth of 3 cm was maintained and the herbicidal effect was examined after 3 weeks from the treatment. The evaluation of the herbicidal effect was conducted in the same manner as the above-mentioned Test Example 1. In case of showing higher than 80% herbicidal effect, it is evaluated as practical as herbicide. In consideration of the possibility that the biological properties including herbicide resistance of the plants grown in different areas might be different, sulfonylurea resistant Lindernia procumbens Philcox collected in two different areas were used in the present tests. The study results with the compounds No. 1, 3, 11 and 17 and the comparative compound No. C-1 as specific examples are shown in the following Table 6.

[2] = test system: sulfonylurea resistant Scirpus juncoides Roxburgh (collected in Iwamizawa area, Hokkaido); assay: as above; conditions: applied at beginning of emergence, examined 3 weeks after treatment
Source text: as §1

[3] = test system: sulfonylurea resistant Lindernia procumbens Philcox (collected in Kazo area, Saitama Pref.); assay: as above; conditions: applied at beginning of emergence, examined 3 weeks after treatment
Source text: as §1

[4] = test system: sulfonylurea resistant Elatine triandra Schk (collected in Kazo area, Saitama Pref.); assay: as above; conditions: applied at beginning of emergence, examined 3 weeks after treatment
Source text: as §1

[5] = test system: Monochoria vaginalis Presi; assay: Test for residual effectiveness against paddy field weeds (Test Example 2); conditions: 60 g ai/ha; period of maintaining herbicidal effect of higher than 80%
Source text: (§2) In a green house a 1000 cm^2 pot was filled with paddy field soil and water was poured to a depth of about 2 to 3 cm. A prescribed, diluted solution of the above-mentioned Test Example 1, was applied to the surface of water. After the prescribed time after the treatment (just after treatment, 1 week, 2 weeks, 3 weeks, 4 weeks, 5 weeks, 6 weeks and 7 weeks after treatment), seeds or tubers of the weeds to be tested Scirpus juncoides Roxburgh, Monochoria vaginalis Presi, annual broad-leaved weeds (Lindernia procumbens Philcox, Rotala indica Koehne, Elatine triandra Schk, Ammannia multiflora Roxb., etc.), Cyperus serotinus Rottboel and Sagittaria pygmaea Miq. were inoculated. Three weeks after the inoculation each herbicidal effect was examined.
(§3) The evaluation of the residual effectiveness was shown as the period (number of weeks) of maintaining herbicidal effect of higher than 80%, after the evaluation of herbicidal effect had been conducted in the similar manner as the above-mentioned Test Example 1.

Sagittaria pygmaea Miq. = assay: as above; conditions: 60 g ai/ha; period of maintaining herbicidal effect of higher than 80%
Source text: as §2, §3

[6] = test system: Scirpus juncoides Roxburgh; assay: as above; conditions: 60 g ai/ha; period of maintaining herbicidal effect of higher than 80%
Source text: as §2, §3

[7] = test system: Cyperus serotinus Rottboel; assay: as above; conditions: 60 g ai/ha; period of maintaining herbicidal effect of higher than 80%
Source text: as §2, §3

[8] = test system: annual broad-leaved weeds; assay: as above; conditions: 60 g ai/ha; period of maintaining herbicidal effect of higher than 80%
Source text: as §2, §3

[9] = test system: Monochoria vaginalis Presi; assay: Test for herbicidal effect against paddy field weeds (Test Example 1); conditions: examined 3 weeks after treatment
Experimental: (§4) Preparation of Formulation of the Active Compound
(§5) • Carrier: DMF 5 parts by weight • Emulsifier: Benzyloxy polyglycol ether 1 part by weight
(§6) A formulation of an active compound is obtained as an emulsifiable concentrate by mixing 1 part by weight of the active compound with the above-mentioned amount of the carrier and emulsifier. A prescribed amount of the formulation is diluted with water.
(§7) In a green house seeds or tubers of Scirpus juncoides Roxburgh, Monochoria vaginalis Presi, annual broad-leaved weeds (Lindemia procumbens Philcox, Rotala indica Koehne, Elatine triandra Schk, Ammannia multiflora Roxb., etc.), Cyperus serotinus Rottboel were inoculated in a 500 cm^2 pot filled with paddy field soil. Then water was poured to a depth of about 2-3 cm. Five days and 13 days after inoculation, a prescribed, diluted solution of the formulation of each active compound, prepared according to the aforementioned preparation method, was applied to the surface of water. After the treatment the water depth of 3 cm was maintained and the herbicidal effect was examined after 3 weeks from the treatment.
(§8) The herbicidal effect was rated 100% in the case of complete death and as 0% in the case of no herbicidal effect. In case of showing higher than 80% herbicidal effect, it is evaluated as practical as herbicide.

[10] = test system: Scirpus juncoides Roxburgh; assay: as above; conditions: examined 3 weeks after treatment
Experimental: as §4, §5, §6, §7, §8

[11] = test system: Cyperus serotinus Rottboel; assay: as above; conditions: examined 3 weeks after treatment
Experimental: as §4, §5, §6, §7, §8

[12] = test system: annual broad-leaved weeds; assay: as above; conditions: examined 3 weeks after treatment
Experimental: as §4, §5, §6, §7, §8

[13] = test system: transplanted rice (var. Nipponbare); assay: Test for phytotoxicity to transplanted rice (Test Example 4); conditions: 60 g ai/ha, application 5 days after transplanting, examined 2 weeks after treatment
Experimental: The phytotoxicity to transplanted rice was evaluated under the conditions with more shallow planting depths than usual depth of 2 cm, simulating the severe condition for herbicides to cause rice injury in the paddy. In a greenhouse 2 to 2.5 leaf-stage of rice (var. Nipponbare) was transplanted at three different depths, in a 1000 cm^2 pot filled with paddy field soil. Then water was poured to a depth of about 2 to about 3 cm. Five days after transplanting, a prescribed, diluted solution of the formulation of each active compound, prepared in the same manner as the above-mentioned Test Example 1, was applied to the surface of water. After the treatment the water depth of 3 cm was maintained and the rice injury was examined after 2 weeks from the treatment. The rice injury was rated 100% in the case of complete death and as 0% in the case of no injury. In case of showing less than 20% injury, it is evaluated as practical as rice herbicide.

[14] = 15 g ai/ha, application 5 days after inoculation
[15] = 15 g ai/ha, application 13 days after inoculation
[16] = 30 g ai/ha, application 5 days after inoculation
[17] = 30 g ai/ha, application 13 days after inoculation

| SMILES | herbicidal effect against sulfonylurea resistant weeds Lindernia procumbens (collected in Higashi-Hiroshima area, Hiroshima Pref.) ([1]; 30 g ai/ha) | herbicidal effect against sulfonylurea resistant weeds Lindernia procumbens (collected in Higashi-Hiroshima area, Hiroshima Pref.) ([1]; 60 g ai/ha) | herbicidal effect against sulfonylurea resistant weeds Scirpus juncoides (collected in Iwamizawa area, Hokkaido) ([2]; 30 g ai/ha) | herbicidal effect against sulfonylurea resistant weeds Scirpus juncoides (collected in Iwamizawa area, Hokkaido) ([2]; 60 g ai/ha) | herbicidal effect against sulfonylurea resistant weeds Lindernia procumbens (collected in Kazo area, Saitama Pref.) ([3]; 30 g ai/ha) | herbicidal effect against sulfonylurea resistant weeds Lindernia procumbens (collected in Kazo area, Saitama Pref.) ([3]; 60 g ai/ha) | herbicidal effect against sulfonylurea resistant weeds Elatine triandra (collected in Kazo area, Saitama Pref.) ([4]; 30 g ai/ha) | herbicidal effect against sulfonylurea resistant weeds Elatine triandra (collected in Kazo area, Saitama Pref.) ([4]; 60 g ai/ha) | period showing sufficient residual herbicidal effectiveness Monochoria vaginalis [5] | period showing sufficient residual herbicidal effectiveness Sagittaria pygmaea (Sagittaria pygmaea Miq.) | period showing sufficient residual herbicidal effectiveness Scirpus juncoides [6] | period showing sufficient residual herbicidal effectiveness Cyperus serotinus [7] | period showing sufficient residual herbicidal effectiveness broad-leaved weeds [8] | herbicidal effect Monochoria vaginalis [9, 14] | herbicidal effect Monochoria vaginalis [9, 15] | herbicidal effect Monochoria vaginalis [9, 16] | herbicidal effect Monochoria vaginalis [9, 17] | herbicidal effect Scirpus juncoides [10, 14] | herbicidal effect Scirpus juncoides [10, 15] | herbicidal effect Scirpus juncoides [10, 16] | further results |
| --- | --- | --- | --- | --- | --- | --- | --- | --- | --- | --- | --- | --- | --- | --- | --- | --- | --- | --- | --- | --- | --- |
| COc1cc(OC)nc(C(O)c2cccc(F)c2NS(=O)(=O)C(F)F)n1 (stereo not drawn) [Compound 1, 2-fluoro-6-[(4,6-dimethoxypyrimidin-2-yl)hydroxymethyl]-N-difluoromethanesulfonanilide] | 100% | 100% | 100% | 100% | 95% | 100% | 100% | 100% | 4 week | 3 week | 6 week | 3 week | 3 week | 100% | 100% | 100% | 100% | 100% | 100% | 100% | herbicidal effect Scirpus juncoides [10, 17]: 100%; herbicidal effect Cyperus serotinus [11, 14]: 100%; herbicidal effect Cyperus serotinus [11, 15]: 95%; herbicidal effect Cyperus serotinus [11, 16]: 100%; herbicidal effect Cyperus serotinus [11, 17]: 100%; herbicidal effect broad-leaved weeds [12, 14]: 100%; herbicidal effect broad-leaved weeds [12, 15]: 95%; herbicidal effect broad-leaved weeds [12, 16]: 100%; herbicidal effect broad-leaved weeds [12, 17]: 100% |
| COc1cc(OC)nc(C(O)c2cccc(F)c2NS(=O)(=O)C(F)(F)F)n1 (stereo not drawn) [Compound C-1, reference compound] | 50% | 80% | 60% | 70% | 40% | 60% | 60% | 70% | <1 week | 1 week | 2 week | 1 week | <1 week | 60% | 50% | 80% | 60% | 70% | 60% | 80% | phytotoxicity to transplanted rice depth 0.5 cm ([13]; planting depth 0.5 cm): 35%; phytotoxicity to transplanted rice depth 2 cm ([13]; planting depth 2 cm): 20%; herbicidal effect Scirpus juncoides [10, 17]: 70%; herbicidal effect Cyperus serotinus [11, 14]: 70%; herbicidal effect Cyperus serotinus [11, 15]: 60%; herbicidal effect Cyperus serotinus [11, 16]: 80%; herbicidal effect Cyperus serotinus [11, 17]: 60%; herbicidal effect broad-leaved weeds [12, 14]: 50%; herbicidal effect broad-leaved weeds [12, 15]: 40%; herbicidal effect broad-leaved weeds [12, 16]: 80%; herbicidal effect broad-leaved weeds [12, 17]: 60% |
